The source of these data is ChEMBL document CHEMBL2346626, “PF-04859989 as a template for structure-based drug design: identification of new pyrazole series of irreversible KAT II inhibitors with improved lipophilic efficiency” (Bioorg Med Chem Lett, 2013).

Molecules are shown by their SMILES. A value given as a limit tells only on which side of the number the result lay.

The target of data set [1] is T1, Kynurenine/alpha-aminoadipate aminotransferase, mitochondrial (Homo sapiens, UniProt Q8N5Z0). The experiment in a line: Inhibition of human KAT2 using L-kynurenine as substrate measured every 5 mins for 16 hours by UV-visible spectra analysis.
Target sequence in this assay (Q8N5Z0 30-425 limits assumed): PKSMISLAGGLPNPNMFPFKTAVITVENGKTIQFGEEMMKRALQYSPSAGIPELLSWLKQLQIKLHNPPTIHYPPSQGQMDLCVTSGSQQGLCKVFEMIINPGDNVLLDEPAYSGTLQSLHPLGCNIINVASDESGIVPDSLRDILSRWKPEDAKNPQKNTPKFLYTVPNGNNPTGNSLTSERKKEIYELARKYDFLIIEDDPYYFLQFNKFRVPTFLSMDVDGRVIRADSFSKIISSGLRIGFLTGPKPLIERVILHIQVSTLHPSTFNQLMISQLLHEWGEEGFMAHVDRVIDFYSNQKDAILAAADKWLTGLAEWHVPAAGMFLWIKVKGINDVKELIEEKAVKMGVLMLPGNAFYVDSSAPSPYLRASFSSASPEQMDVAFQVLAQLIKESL
Data set [2] has as its target T1, Kynurenine/alpha-aminoadipate aminotransferase, mitochondrial. Description: Inhibition of human KAT2 using L-kynurenine as substrate after 15 to 20 hrs by UV-visible spectra analysis.
Target sequence in this assay (Q8N5Z0 whole entry): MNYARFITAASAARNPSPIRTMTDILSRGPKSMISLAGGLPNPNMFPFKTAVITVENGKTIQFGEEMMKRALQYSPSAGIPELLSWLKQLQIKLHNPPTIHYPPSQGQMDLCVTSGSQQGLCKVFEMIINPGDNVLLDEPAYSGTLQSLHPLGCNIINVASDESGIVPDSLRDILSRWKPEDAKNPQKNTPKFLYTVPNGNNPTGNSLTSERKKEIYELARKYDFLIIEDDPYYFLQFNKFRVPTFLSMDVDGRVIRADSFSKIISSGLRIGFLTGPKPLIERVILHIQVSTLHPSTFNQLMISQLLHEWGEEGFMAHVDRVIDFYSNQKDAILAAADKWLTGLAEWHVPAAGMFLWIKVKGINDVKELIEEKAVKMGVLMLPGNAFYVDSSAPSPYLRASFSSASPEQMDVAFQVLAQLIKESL
The nature of data set [3]: Intrinsic apparent clearance in human liver microsomes. Type of data set: ADME, Microsome. The following applies: read-out: CLH(app). Background: Liver microsomes are vesicles of endoplasmic reticulum, rich in cytochrome P450 enzymes.
Data set [4] concerns the target T1, Kynurenine/alpha-aminoadipate aminotransferase, mitochondrial. Description: Ratio of Kinact to Ki for inhibition of human KAT2.
Target sequence in this assay (Q8N5Z0 30-425 limits assumed): as the sequence (Q8N5Z0 30-425 limits assumed) above

Compound `N[C@H]1Cc2cn(-c3ccccc3)nc2N(O)C1=O` returned a Kinact in data set [1] of 0.0125 min⁻¹. In data set [2], the IC50 (usually the concentration at which inhibition is half-maximal) is 25 nM; the Ki (as a rule, the dissociation constant of the complex between target and ligand, obtained from inhibition or displacement) is 1.9 nM. In addition, the microsomal CLint in data set [3] was below 8 µL/min/mg. Besides, in data set [4], the Ratio was found to be 112000 M⁻¹ s⁻¹.
The compound `N[C@H]1Cc2cn(Cc3ccccc3)nc2N(O)C1=O` returned a Kinact in data set [1] of 0.0147 min⁻¹. Further, in data set [2], the IC50 worked out at 47 nM and the Ki amounted to 23 nM. In data set [4], the Ratio was determined as 10500 M⁻¹ s⁻¹.
For the compound `N[C@H]1Cc2c(c(C(F)(F)F)nn2Cc2ccccc2)N(O)C1=O`, in data set [1], the Kinact was 0.0227 min⁻¹. In data set [2], this compound yielded an IC50 of 74 nM and a Ki of 48 nM. Also, the Ratio in data set [4] stood at 7920 M⁻¹ s⁻¹.
Compound `Cn1nc(Cc2ccccc2)c2c1N(O)C(=O)[C@@H](N)C2` showed a Kinact in data set [1] of 0.0349 min⁻¹. Besides, the Ki in data set [2] was determined as 32 nM. Further, in data set [4], the Ratio was 16000 M⁻¹ s⁻¹.
In data set [1], `COc1cc2c(cc1Cc1ccccc1)C[C@H](N)C(=O)N2O` registered a Kinact of 0.0146 min⁻¹. In addition, in data set [2], the IC50 worked out at 37 nM and the Ki was determined as 1.6 nM. Further, the microsomal CLint in data set [3] worked out at 26 µL/min/mg. The Ratio in data set [4] is 129000 M⁻¹ s⁻¹.
In turn, `COc1cccc(Cc2nn(C)c3c2C[C@H](N)C(=O)N3O)c1` registered a Kinact in data set [1] of 0.0116 min⁻¹. For the same compound, in data set [2], the affinity, expressed as Ki, was 22 nM. The Ratio in data set [4] was 8710 M⁻¹ s⁻¹.
`N[C@H]1Cc2nn(-c3ccccc3)cc2N(O)C1=O` yielded a Kinact in data set [1] of 0.0144 min⁻¹. Further, in data set [2], the IC50 was 85 nM and the affinity, expressed as Ki, was 41 nM. Moreover, the Ratio in data set [4] amounted to 8580 M⁻¹ s⁻¹.
In data set [2], `N[C@H]1Cc2ccccc2N(O)C1=O` registered an inhibition constant Ki of 14 nM.
`N[C@H]1Cc2c(cnn2Cc2ccccc2)N(O)C1=O` showed a Kinact in data set [1] of 0.0116 min⁻¹. The compound also had a Ki in data set [2] of 12 nM. The Ratio in data set [4] amounted to 16200 M⁻¹ s⁻¹.
